Earlier results as cited in patent publication US7067586B2, “Methods of making ABA-type block copolymers having a random block of hydrophobic and hydrophilic monomers” (Symyx Technologies, Inc., priority 2000, dated 2006).

Details: octanol-water partition coefficient of the monomer; approximate values from web-site estimation program or Hansch et al.
For `C=CCO` [allyl alcohol], the “log P” value is given as about 0.17.
In the case of `C=CC(=O)NC(C)(C)C` [N-t-butyl acrylamide], the “log P” value is given as about 1.02.
For `C=CC(=O)OCCOC` [2-methoxyethylacrylate], the “log P” value is listed as “about 0.45”.
For `C=CC(=O)OC(C)(C)C` [tert-butylacrylate], the “log P” value is listed as “about 2.09”.
In the case of `C=Cc1ccccc1` [styrene], the “log P” value is listed as “about 2.95”.
In the case of `C=C(C)C(=O)OCCN(C)C` [dimethyl aminoethyl methacrylate], the “log P” value is listed as about 0.97.
In the case of `C=CC(=O)OCCO` [2-hydroxyethylacrylate], the “log P” value is listed as “about −0.21”.
In the case of `C=C(CC(=O)O)C(=O)O` [itaconic acid], the “log P” value is given as about −0.34.
In the case of `C=C(C)C(N)=O` [methacrylamide], the “log P” value is listed as about −0.26.
For `C=C(C)C(=O)OC` [methyl methacrylate], the “log P” value is listed as about 1.38.
In the case of `C=C(C)C(=O)OCCCC` [n-butyl methacrylate], the “log P” value is listed as about 2.36.
In the case of `O=C(O)/C=C\C(=O)O` [maleic acid], the “log P” value is listed as about −0.48.
In the case of `C=C(C)C(=O)OC(C)(C)C` [t-butyl methacrylate], the “log P” value is listed as about 2.54.
In the case of `C=C(C)C(=O)O` [methacrylic acid], the “log P” value is given as about 0.93.
In the case of `C=C(C)C(=O)OCC(C)C` [isobutyl methacrylate], the “log P” value is listed as about 2.66.
For `C=C(C)C(=O)OCCO` [2-hydroxyethylmethacrylate], the “log P” value is listed as “about 0.47”.

Same assay, conditions: octanol-water partition coefficient of the monomer; approximate values from web-site estimation program or Hansch et al.; listed as t-butyl acrylate
In the case of `C=CC(=O)OC(C)(C)C` [tert-butylacrylate], the “log P” value is listed as about 2.09.
